Measured values taken from ChEMBL document CHEMBL1128481, “Synthesis, structure elucidation, and biochemical evaluation of 7 alpha- and 7 beta-arylaliphatic-substituted androst-4-ene-3,17-diones as inhibitors of aromatase” (J Med Chem, 1995).

Legend:
Aromatase [1] = target: T1, Aromatase (Homo sapiens, UniProt P11511)
T1 sequence (P11511 whole entry): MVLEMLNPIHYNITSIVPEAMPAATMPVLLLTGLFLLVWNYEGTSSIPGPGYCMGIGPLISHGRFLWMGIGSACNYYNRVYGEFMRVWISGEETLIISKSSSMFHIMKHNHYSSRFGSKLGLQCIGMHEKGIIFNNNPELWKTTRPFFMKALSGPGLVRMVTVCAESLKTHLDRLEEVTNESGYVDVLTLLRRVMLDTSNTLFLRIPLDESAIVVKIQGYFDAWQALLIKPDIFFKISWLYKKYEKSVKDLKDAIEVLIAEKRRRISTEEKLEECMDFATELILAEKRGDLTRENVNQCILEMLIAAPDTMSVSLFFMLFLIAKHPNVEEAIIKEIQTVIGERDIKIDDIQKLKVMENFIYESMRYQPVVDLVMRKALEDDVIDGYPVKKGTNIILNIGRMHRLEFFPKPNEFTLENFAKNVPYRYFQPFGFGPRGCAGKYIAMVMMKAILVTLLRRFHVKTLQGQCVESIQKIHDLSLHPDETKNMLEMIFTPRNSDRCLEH

Aromatase [2] = target: T1, Aromatase; remark: listed apart in the source
Description: Inhibition of human placental Cytochrome P450 19A1 at 250 nM

Aromatase [3] = target: T1, Aromatase; remark: listed apart in the source
Description: Apparent binding affinity for human placental Cytochrome P450 19A1

Aromatase [4] = target: T1, Aromatase; assay: Inhibition of human placental Cytochrome P450 19A1 at 100 nM

| SMILES | inhibition at 0.1 µM (Aromatase [1]) | inhibition at 0.25 µM (Aromatase [2]) | Ki (Aromatase [3]) | inhibition at 0.1 µM (Aromatase [4]) |
| --- | --- | --- | --- | --- |
| CC12CCC3C(C1CCC2=O)[C@H](CCc1ccccc1)CC1=CC(=O)CCC13C (stereo not given in full) | 66.1% | 81.6% | 13.1 nM | – |
| C[C@]12CCC(=O)C=C1C[C@@H](Sc1ccc(N)cc1)[C@@H]1[C@@H]2CC[C@]2(C)C(=O)CC[C@@H]12 | – | 83.9% | – | 70.6% |
| C[C@]12CC[C@H]3[C@@H]([C@H](Cc4ccccc4)CC4=CC(=O)CC[C@@]43C)[C@@H]1CC[C@@H]2O | 59.4% | 72.5% | 39.5 nM | – |
| C[C@]12CCC(=O)C=C1C[C@H](CCc1ccccc1)[C@@H]1[C@@H]2CC[C@]2(C)C(=O)CC[C@@H]12 | 55.7% | 67.8% | 40.2 nM | – |
| CC12CCC3C(C1CCC2=O)[C@H](Cc1ccccc1)CC1=CC(=O)CCC13C (stereo not given in full) | 64.3% | 81.5% | 18.9 nM | – |
| C[C@]12CC[C@H]3[C@@H]([C@H](CCc4ccccc4)CC4=CC(=O)CC[C@@]43C)[C@@H]1CC[C@@H]2O | 45.8% | 56.7% | 36 nM | – |
| C[C@]12CCC(=O)C=C1C[C@H](Cc1ccccc1)[C@@H]1[C@@H]2CC[C@]2(C)C(=O)CC[C@@H]12 | 46.7% | 68.9% | 44.5 nM | – |
